Results reported in patent US20140107051A1, “ISOFLAVONES FOR TREATING MUCOPOLYSACCHARIDOSES” (INSTYTUT FARMACEUTYCZNY, priority 2005, published 2014).

Columns and labels:
[1] = test system: cultured human skin fibroblasts derived from patients affected with mucopolysaccharidose; assay: 35S-sulphate incorporation test of glycosaminoglycans synthesis, different human cell lines / MPS types; format: cell-based; conditions: 30 μM; both cell lines of Table 2
Experimental: (§1) The activity of isoflavones was evaluated by the measure of glycosaminoglycans synthesis in 35S-sulphate incorporation test comprising incubation of the radiolabelled 35S-sulfate into GAGs in cultured human skin fibroblasts derived from normal individuals (control) and patients affected with mucopolysaccharidose (Murata et al., Arch Biochem Biophys 2003; 413: 229-235).
(§2) The negative control was DMSO (diluent for genistein and all derivatives), the positive control—genistein. […] Experiment with each cell line has been repeated twice, and every measurement has been done twice.

[2] = test system: cultured human skin fibroblasts derived from normal individuals; assay: 35S-sulphate incorporation test of glycosaminoglycans synthesis, normal cells; format: cell-based; conditions: 30 μM; for activity at 30 µM: Homo sapiens, Skin fibroblast, DMSO control = 1, read-out: Relative GAG synthesis (converted to 1 cell), Normal cells
Experimental: as §1, §2

[3] = test system: fibroblasts of patients affected with MPS I; assay: 35S-sulphate incorporation test of glycosaminoglycans synthesis, MPS I cells; format: cell-based, human; conditions: Homo sapiens, Fibroblast, 30 μM; DMSO control = 1; read-out: Relative GAG synthesis (converted to 1 cell), MPS I
Experimental: as §1, §2

MPS IIIA fibroblasts = assay: Number of lysosomal structures by electron microscopy, MPS IIIA; format: cell-based, human; conditions: 30 μM
MPS IIIB fibroblasts = assay: Number of lysosomal structures by electron microscopy, MPS IIIB; format: cell-based, human; conditions: 30 μM
[4] = Proliferation 144 h (Table 4); format: cell-based; conditions: read-out: Proliferation 144 h IC50

Row | SMILES | CC50 at 24 h (in vitro) [µM] | influence on GAG synthesis compared with genistein (in words) [1] | Inhibition in relation to genistein, first symbol (normal cells) [2] | activity at 30 µM [2] [%] | activity at 30 µM [3] [%] | Number of structures per 100 μm^2 of cellular cross section ± SD, amorphous (MPS IIIA fibroblasts) [per 100 μm^2] | Number of structures per 100 μm^2 of cellular cross section ± SD, complexed (MPS IIIA fibroblasts) [per 100 μm^2] | Number of structures per 100 μm^2 of cellular cross section ± SD, lamellar (MPS IIIA fibroblasts) [per 100 μm^2] | Number of structures per 100 μm^2 of cellular cross section ± SD, total number (MPS IIIA fibroblasts) [per 100 μm^2] | Number of structures per 100 μm^2 of cellular cross section ± SD, amorphous (MPS IIIB fibroblasts) [per 100 μm^2] | Number of structures per 100 μm^2 of cellular cross section ± SD, complexed (MPS IIIB fibroblasts) [per 100 μm^2] | Number of structures per 100 μm^2 of cellular cross section ± SD, lamellar (MPS IIIB fibroblasts) [per 100 μm^2] | Number of structures per 100 μm^2 of cellular cross section ± SD, total number (MPS IIIB fibroblasts) [per 100 μm^2] | CC50 at 48 h (in vitro) [µM] | IC50 [4] [µM]
1 | C=CCOc1ccc(-c2coc3cc(OCC=C)cc(O)c3c2=O)cc1 [IFG-035] | 22.6 | an activity comparable with genistein, but only for one cell line | 0 | 26 | 117 |  |  |  |  |  |  |  |  |  | 
2 | CC(C)Oc1ccc(-c2coc3cc(O)cc(O)c3c2=O)cc1 [IFG-066] | > 30 |  | 0/0 | 23 | 44 | 0.18 ± 0.19 | 0.16 ± 0.08 | 0.13 ± 0.10 | 0.48 ± 0.17 | 0.08 ± 0.06 | 0.11 ± 0.14 | 0.15 ± 0.10 | 0.34 ± 0.23 | > 30 | 14.6
3 | O=c1c(-c2ccc(O)cc2)coc2cc(OCc3ccccc3)cc(O)c12 [IFG-043] | 14.5 | an activity comparable with genistein | + | 17 | 44 |  |  |  |  |  |  |  |  |  | 
4 | CC(C)(C)OC(=O)COc1ccc(-c2coc3cc(OCC(=O)OC(C)(C)C)cc(O)c3c2=O)cc1 [IFG-042] | 22 | stronger influence on GAG synthesis than genistein | + | 14 | 49 |  |  |  |  |  |  |  |  |  | 
5 | CC(C)(C)OC(=O)COc1ccc(-c2coc3cc(O)cc(O)c3c2=O)cc1 [IFG-048] | 20.3 | an activity comparable with genistein, but only for one cell line |  | 70 | 92 |  |  |  |  |  |  |  |  |  | 
6 | CC(C)(C#N)c1cc(COc2ccc(-c3coc4cc(OCc5ccccc5)cc(O)c4c3=O)cc2)cc(C(C)(C)C#N)c1 [IFG-053] | > 30 | an activity comparable with genistein | 0/0 | 30 | 52 |  |  |  |  |  |  |  |  | > 30 | 53
7 | O=c1c(-c2ccc(O)cc2)coc2cc(OCCCO)cc(O)c12 [IFG-072, 5-hydroxy-3-(4-hydroxyphenyl)-7-(3-hydroxypropoxy)-chromen-4-one] | > 30 |  |  |  |  | 0.34 ± 0.17 | 0.28 ± 0.10 | 0.20 ± 0.10 | 0.82 ± 0.23 | 0.14 ± 0.10 | 0.16 ± 0.08 | 0.11 ± 0.12 | 0.41 ± 0.20 | 32.5 | 14.1
8 | C=CCOC(=O)Oc1cc(O)c2c(=O)c(-c3ccc(O)cc3)coc2c1 [IFG-063] | 51.5 |  |  | 75 | 187 |  |  |  |  |  |  |  |  |  | 
9 | CCCCCCCCCCCCCCCC(=O)Oc1cc(O)c2c(=O)c(-c3ccc(O)cc3)coc2c1 [IFG-018] | 41.7 | stronger influence on GAG synthesis than genistein | 0/0 | 37 | 51 |  |  |  |  |  |  |  |  | 23.8 | 24.9
10 | Nc1ccccc1C(=O)Oc1ccc(-c2coc3cc(O)cc(O)c3c2=O)cc1 [IFG-001] | 13.9 |  |  | 84 | 170 |  |  |  |  |  |  |  |  |  | 
11 | O=C(Oc1cc(O)c2c(=O)c(-c3ccc(O)cc3)coc2c1)c1ccccc1O [IFG-034] | > 30 |  |  | 40 | 93 | 0.17 ± 0.09 | 0.27 ± 0.14 | 0.17 ± 0.09 | 0.61 ± 0.20 | 0.15 ± 0.08 | 0.06 ± 0.05 | 0.20 ± 0.16 | 0.41 ± 0.16 | > 30 | 22.9
12 | C=CCOc1cc(O)c2c(=O)c(-c3ccc(OC(=O)c4ccccc4OC(C)=O)cc3)coc2c1 [IFG-052] | 15.8 | an activity comparable with genistein, but only for one cell line |  | 75 | 85 |  |  |  |  |  |  |  |  | 21.5 | 12.2
